What was measured:
[1] = cited from earlier work; for Kidney selectivity of carrier peptide: even with conjugated drugs
Text: Many proteins and peptides take on an increasingly important role as therapeutics in areas including diabetes diseases mainly due to their potential to bind to targets in a selective manner, thus reducing undesired off‐target effects. ^17 Drug‐targeting delivery to the kidney is an attractive method to increase the pharmaceutical compounds efficacy, ^18 however it represents a promising but underdeveloped area. Recently, galectin‐3 targeted G3C12 peptide and ε‐polylysine derived, synthetic (KKEEE)3K peptide have been identified as novel highly kidney‐specific carriers with exceptional kidney s ...

human recombinant MMP2 = biological target: T1, human recombinant MMP2 (Homo sapiens, UniProt P08253); experiment: MMP2 colorimetric Inhibitor Screening Assay kit; format: biochemical; settings: 1 μM peptide, 0.9 U enzyme, 37°C 60 minutes before substrate, read at 412 nm, n = 3; Figures 5A, S4E
T1 construct: purchased Abcam
T1 sequence (P08253 110-660): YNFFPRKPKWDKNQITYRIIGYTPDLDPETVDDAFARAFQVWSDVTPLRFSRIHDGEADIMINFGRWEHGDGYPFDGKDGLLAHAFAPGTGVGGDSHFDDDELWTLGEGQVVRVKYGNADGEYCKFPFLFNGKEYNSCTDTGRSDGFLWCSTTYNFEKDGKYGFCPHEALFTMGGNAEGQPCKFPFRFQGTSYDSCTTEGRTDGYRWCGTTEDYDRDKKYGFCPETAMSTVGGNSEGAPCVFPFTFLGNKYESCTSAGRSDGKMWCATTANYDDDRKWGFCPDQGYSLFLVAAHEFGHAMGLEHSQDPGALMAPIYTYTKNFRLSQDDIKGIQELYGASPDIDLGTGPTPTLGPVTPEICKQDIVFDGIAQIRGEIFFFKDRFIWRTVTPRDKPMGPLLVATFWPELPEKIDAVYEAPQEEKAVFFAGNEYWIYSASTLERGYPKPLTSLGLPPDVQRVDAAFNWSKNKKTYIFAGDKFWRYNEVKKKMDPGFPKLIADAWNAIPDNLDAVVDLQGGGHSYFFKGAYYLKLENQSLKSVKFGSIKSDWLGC
Method: (§1) The MMP2/9 activities were evaluated using MMP2/MMP9 colorimetric Inhibitor Screening Assay kits (Abcam) under the manufacturer's instruction. In brief, 0.9 U of human recombinant MMP2 or MMP9 was mixed with 1 μM G3C12, G3C12‐NTIMP3, G3C12‐T2GNTIMP3 peptides, or 1.3 μM NNGH inhibitor as […]. The mixture was incubated at 37°C for 60 minutes then substrate was added. The plate was read at 412 nm by infinite F50 microplate reader (TECAN). Continuous recording was made at 1 minute interval for 20 minutes. The experiment was performed in triplicate.

human recombinant MMP9 = biological target: T2, human recombinant MMP9 (Homo sapiens, UniProt P14780); experiment: MMP9 colorimetric Inhibitor Screening Assay kit; format: biochemical; settings: 1 μM peptide, 0.9 U enzyme, 37°C 60 minutes before substrate, read at 412 nm, n = 3; Figures 5A, S4E
T2 construct: purchased Abcam
Method: as §1

human recombinant ADAM17 = biological target: T3, human recombinant ADAM17 (Homo sapiens, UniProt P78536); experiment: ADAM17 activity, SensoLyte 520 TACE Activity Assay Kit; format: biochemical; settings: 1 μM peptide, 1 μM enzyme, QXL520/5-FAM FRET substrate, 60 minutes, n = 3; Figures 5A, S4E
T3 construct: purchased R&D Systems
Method: ADAM17 activity was determined using the SensoLyte 520 TACE Activity Assay Kit (AnaSpec). 1 μM human recombinant ADAM17 (R&D Systems) was incubated with the QXL520/ 5‐FAM FRET substrate, derived from a sequence surrounding the cleavage site of ADAM17. For inhibitor studies, 1μM TAPI‐0 or 1 μM G3C12, G3C12‐NTIMP3 and G3C12‐T2GNTIMP3 peptides were used. Active ADAM17 cleaves FRET substrate into two separate fragments resulting in an increase of 5‐FAM fluorescence which can be monitored at excitation/emission = 490 nm/520 nm measured in a fluorescence microplate reader (Beckman Coulter DTX 800) continuously every 5 minutes for 60 minutes (10).

diabetic DBA/2J mice = experiment: Peptide treatment of STZ diabetic mice: toxicity, behaviour, blood glucose; format: in vivo; settings: STZ diabetic DBA/2J mice, 2 mg/kg iv, two injections per week for 8 weeks
Method: Diabetes was induced in 8‐week‐old mice by a multiple low‐dose streptozotocin (STZ) (Sigma) injection. STZ was given intraperitoneally (ip) at 50 mg/kg per day (freshly made in Na‐Citrate buffer, pH 4.5) for 5 consecutive days after a 4 hours fast. Control animals were treated with Na‐citrate buffer alone. Diabetes was defined as fed blood glucose level ≥250 mg/dL using a glucometer (OneTouch Ultra, LifeScan).
At 5 weeks after STZ or Na‐Citrate buffer administration, DBA/2J mice were randomly divided into the following four treatment groups: (1) vehicle buffer (PBS), (2) G3C12 free peptide, (3) G3C12‐NTIMP3 peptide, and (4) G3C12‐T2GNTIMP3 peptide. Peptides were dissolved in sterile PBS and administered intravenously (iv) by retro‐orbital injection (2 mg/kg body weight) in mice two times per week for 8 weeks.

T3 sequence (P78536 215-824): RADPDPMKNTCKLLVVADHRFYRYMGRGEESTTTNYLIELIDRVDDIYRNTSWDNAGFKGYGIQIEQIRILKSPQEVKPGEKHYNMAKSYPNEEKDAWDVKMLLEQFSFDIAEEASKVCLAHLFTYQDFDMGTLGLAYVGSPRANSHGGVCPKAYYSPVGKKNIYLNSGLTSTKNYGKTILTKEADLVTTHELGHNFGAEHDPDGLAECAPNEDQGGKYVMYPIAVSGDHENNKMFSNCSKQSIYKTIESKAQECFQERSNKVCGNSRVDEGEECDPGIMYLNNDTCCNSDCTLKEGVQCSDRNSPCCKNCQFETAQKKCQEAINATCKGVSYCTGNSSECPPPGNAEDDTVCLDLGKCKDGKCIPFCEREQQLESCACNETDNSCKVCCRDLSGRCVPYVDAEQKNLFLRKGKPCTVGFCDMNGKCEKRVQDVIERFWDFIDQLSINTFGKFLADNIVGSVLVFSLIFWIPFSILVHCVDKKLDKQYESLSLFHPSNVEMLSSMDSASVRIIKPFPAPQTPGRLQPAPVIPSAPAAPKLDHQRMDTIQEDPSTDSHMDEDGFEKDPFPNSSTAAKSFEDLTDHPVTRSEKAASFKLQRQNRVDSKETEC
T2 sequence (P14780 94-707): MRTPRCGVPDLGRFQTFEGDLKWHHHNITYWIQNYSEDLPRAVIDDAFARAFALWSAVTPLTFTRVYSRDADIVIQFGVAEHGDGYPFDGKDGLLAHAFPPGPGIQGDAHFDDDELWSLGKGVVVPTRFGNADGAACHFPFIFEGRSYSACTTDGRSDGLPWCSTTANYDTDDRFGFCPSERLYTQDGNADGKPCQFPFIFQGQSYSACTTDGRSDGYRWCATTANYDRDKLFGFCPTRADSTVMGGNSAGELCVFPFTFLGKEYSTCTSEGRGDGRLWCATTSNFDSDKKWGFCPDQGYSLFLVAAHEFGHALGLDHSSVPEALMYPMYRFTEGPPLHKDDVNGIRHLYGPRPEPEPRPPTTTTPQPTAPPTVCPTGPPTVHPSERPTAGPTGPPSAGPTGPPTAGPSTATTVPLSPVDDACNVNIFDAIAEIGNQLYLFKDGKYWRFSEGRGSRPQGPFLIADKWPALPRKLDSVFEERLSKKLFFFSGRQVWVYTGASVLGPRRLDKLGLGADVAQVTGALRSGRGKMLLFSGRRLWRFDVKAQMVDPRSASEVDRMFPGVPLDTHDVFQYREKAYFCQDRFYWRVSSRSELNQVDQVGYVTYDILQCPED

(KKEEE)3K [ε‐polylysine derived, synthetic kidney‐specific carrier peptide]
Kidney accumulation of carrier peptide [1]: rapid kidney accumulation | Toxic profile of carrier peptide [1]: no toxic profile | Kidney selectivity of carrier peptide [1]: exceptional kidney selectivity

ANTPCGPYTHDCPVKR [G3C12]
Inhibition of human MMP2 enzyme activity (percentage of residual activity) (human recombinant MMP2): did not show any inhibitory activity | Inhibition of human MMP9 enzyme activity (percentage of residual activity) (human recombinant MMP9): did not show any inhibitory activity | Inhibition of human ADAM17 enzyme activity (percentage of residual activity) (human recombinant ADAM17): did not show any inhibitory activity | Changes in behavioral or nutritional status (diabetic DBA/2J mice): Neither have any changes been observed | Toxic effects (diabetic DBA/2J mice): No toxic effects were observed | Kidney accumulation of carrier peptide [1]: rapid kidney accumulation | Toxic profile of carrier peptide [1]: no toxic profile | Kidney selectivity of carrier peptide [1]: exceptional kidney selectivity
